Data as given in PubChem BioAssay AID1963862 (Molecular Pharmacology Branch, DTP, NCI, 2024).

Tested on: KRAS patient-derived spheroids with HUVEC/MSC, viability
Test: Anticancer human tumor 941728-121-R-J1-PDC patient-derived lung adenocarcinoma cell line growth inhibition [KRAS2]
Settings: for IC50: curve of first compound; for viability, T/C: stronger effect = lower value
How it was run: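 KRAS-mutant tumor cells were grown as spheroids with HUVEC endothelial cells and human MSCs as stroma. Targeted agents were tested alone and with KRAS pathway inhibitors. Doses started at or near clinical Cmax, or 10 microM, descending half-log.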

[1] = second compound 0.1 µM, first compound 0.01 µM
[2] = second compound 0.1 µM, first compound 0.0316 µM
[3] = second compound 0.1 µM, first compound 0.1 µM
[4] = second compound 0.1 µM, first compound 0.316 µM
[5] = second compound 0.1 µM, first compound 1 µM
[6] = second compound 0.1 µM, first compound 3.16 µM
[7] = second compound 0.316 µM, first compound 0.01 µM
[8] = second compound 0.316 µM, first compound 0.0316 µM
[9] = second compound 0.316 µM, first compound 0.1 µM
[10] = second compound 0.316 µM, first compound 0.316 µM
[11] = second compound 0.316 µM, first compound 1 µM
[12] = second compound 0.316 µM, first compound 3.16 µM
[13] = second compound 1 µM, first compound 0.01 µM
[14] = second compound 1 µM, first compound 0.0316 µM
[15] = second compound 1 µM, first compound 0.1 µM
[16] = second compound 1 µM, first compound 0.316 µM
[17] = second compound 1 µM, first compound 1 µM
[18] = second compound 1 µM, first compound 3.16 µM
[19] = second compound 3.16 µM, first compound 0.01 µM
[20] = second compound 3.16 µM, first compound 0.0316 µM
[21] = second compound 3.16 µM, first compound 0.1 µM
[22] = second compound 3.16 µM, first compound 0.316 µM
[23] = second compound 3.16 µM, first compound 1 µM
[24] = second compound 3.16 µM, first compound 3.16 µM
[25] = second compound 10 µM, first compound 0.01 µM
[26] = second compound 10 µM, first compound 0.0316 µM
[27] = second compound 10 µM, first compound 0.1 µM
[28] = second compound 10 µM, first compound 0.316 µM
[29] = second compound 10 µM, first compound 1 µM
[30] = second compound 10 µM, first compound 3.16 µM
[31] = second compound 0.1 µM, first compound 10 µM
[32] = second compound 0.316 µM, first compound 10 µM
[33] = second compound 1 µM, first compound 10 µM
[34] = second compound 3.16 µM, first compound 10 µM
[35] = second compound 10 µM, first compound 10 µM
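Further: spheroids exposed to agents for seven days before readout.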

CC1COCCN1c1cc(-c2ccnn2C)c2ccnc(-c3ccn[nH]3)c2n1 (stereo not given) + CNCc1ccccc1-c1csc(C(C)Nc2nc(C)nc3cc(OC)c(OC)cc23)c1
IC50 (second compound 0.1 µM): 23.7 nM | IC50 (second compound 0.316 µM): < 10 nM | IC50 (second compound 1 µM): < 10 nM | IC50 (second compound 3.16 µM): < 10 nM | IC50 (second compound 10 µM): < 10 nM | viability, T/C [1]: 63.1% | viability, T/C [2]: 43.3% | viability, T/C [3]: 39.4% | viability, T/C [4]: 31.7% | viability, T/C [5]: 28.2% | viability, T/C [6]: 26.8% | viability, T/C [7]: 41.5% | viability, T/C [8]: 37.1% | viability, T/C [9]: 29% | viability, T/C [10]: 22.8% | viability, T/C [11]: 22.9% | viability, T/C [12]: 22.6% | viability, T/C [13]: 24.9% | viability, T/C [14]: 29.4% | viability, T/C [15]: 18.8% | viability, T/C [16]: 19% | viability, T/C [17]: 14% | viability, T/C [18]: 11.4% | viability, T/C [19]: 1.36% | viability, T/C [20]: 1.18% | viability, T/C [21]: 1.37% | viability, T/C [22]: 0.47% | viability, T/C [23]: 0.45% | viability, T/C [24]: 0.62% | viability, T/C [25]: 0.73% | viability, T/C [26]: 0.11% | viability, T/C [27]: 0.25% | viability, T/C [28]: 0.12% | viability, T/C [29]: 0.14% | viability, T/C [30]: 0.17%

CC1OCC2(CCN(c3cnc(Sc4ccnc(N)c4Cl)c(N)n3)CC2)C1N (stereo not given) + CNCc1ccccc1-c1csc(C(C)Nc2nc(C)nc3cc(OC)c(OC)cc23)c1
IC50 (second compound 0.1 µM): < 31.6 nM | IC50 (second compound 0.316 µM): < 31.6 nM | IC50 (second compound 1 µM): < 31.6 nM | IC50 (second compound 3.16 µM): < 31.6 nM | IC50 (second compound 10 µM): < 31.6 nM | viability, T/C [2]: 49.5% | viability, T/C [3]: 38.1% | viability, T/C [4]: 38.1% | viability, T/C [5]: 32.5% | viability, T/C [6]: 35.3% | viability, T/C [31]: 34% | viability, T/C [8]: 41% | viability, T/C [9]: 34.7% | viability, T/C [10]: 31.2% | viability, T/C [11]: 28.9% | viability, T/C [12]: 30.2% | viability, T/C [32]: 30.1% | viability, T/C [14]: 37.6% | viability, T/C [15]: 36.6% | viability, T/C [16]: 28.2% | viability, T/C [17]: 26.2% | viability, T/C [18]: 20.9% | viability, T/C [33]: 17.8% | viability, T/C [20]: 5.49% | viability, T/C [21]: 2.19% | viability, T/C [22]: 2.26% | viability, T/C [23]: 2.13% | viability, T/C [24]: 0.72% | viability, T/C [34]: 0.85% | viability, T/C [26]: 0.11% | viability, T/C [27]: 0.12% | viability, T/C [28]: 0.4% | viability, T/C [29]: 0.22% | viability, T/C [30]: 1.25% | viability, T/C [35]: 0.16%

CCNC(=O)CC1N=C(c2ccc(Cl)cc2)c2cc(OC)ccc2-n2c(C)nnc21 (stereo not given) + CNCc1ccccc1-c1csc(C(C)Nc2nc(C)nc3cc(OC)c(OC)cc23)c1
IC50 (second compound 0.1 µM): 64.4 nM | IC50 (second compound 0.316 µM): < 31.6 nM | IC50 (second compound 1 µM): < 31.6 nM | IC50 (second compound 3.16 µM): < 31.6 nM | IC50 (second compound 10 µM): < 31.6 nM | viability, T/C [2]: 53.8% | viability, T/C [3]: 48.9% | viability, T/C [4]: 40.2% | viability, T/C [5]: 35.5% | viability, T/C [6]: 34.1% | viability, T/C [31]: 28.6% | viability, T/C [8]: 38.7% | viability, T/C [9]: 37.1% | viability, T/C [10]: 27.8% | viability, T/C [11]: 25.8% | viability, T/C [12]: 20.6% | viability, T/C [32]: 19.8% | viability, T/C [14]: 30% | viability, T/C [15]: 27.2% | viability, T/C [16]: 20.7% | viability, T/C [17]: 17.4% | viability, T/C [18]: 12.9% | viability, T/C [33]: 11% | viability, T/C [20]: 1.35% | viability, T/C [21]: 2.8% | viability, T/C [22]: 0.83% | viability, T/C [23]: 1.53% | viability, T/C [24]: 1.46% | viability, T/C [34]: 1.72% | viability, T/C [26]: 0.51% | viability, T/C [27]: 0.89% | viability, T/C [28]: 0.25% | viability, T/C [29]: 0.86% | viability, T/C [30]: 0.86% | viability, T/C [35]: 0.53%

Cn1nccc1Nc1nccc(-c2cc3c(s2)C(C)(C)N(CCN2CCOCC2)C3=O)n1 + CNCc1ccccc1-c1csc(C(C)Nc2nc(C)nc3cc(OC)c(OC)cc23)c1
IC50 (second compound 0.1 µM): 81.2 nM | IC50 (second compound 0.316 µM): < 31.6 nM | IC50 (second compound 1 µM): < 31.6 nM | IC50 (second compound 3.16 µM): < 31.6 nM | IC50 (second compound 10 µM): < 31.6 nM | viability, T/C [2]: 70.3% | viability, T/C [3]: 46.4% | viability, T/C [4]: 37.4% | viability, T/C [5]: 37.9% | viability, T/C [6]: 36.8% | viability, T/C [31]: 40.7% | viability, T/C [8]: 40.3% | viability, T/C [9]: 37.9% | viability, T/C [10]: 34.8% | viability, T/C [11]: 32.3% | viability, T/C [12]: 31% | viability, T/C [32]: 29.6% | viability, T/C [14]: 35.6% | viability, T/C [15]: 30.3% | viability, T/C [16]: 31.6% | viability, T/C [17]: 21.3% | viability, T/C [18]: 11.4% | viability, T/C [33]: 13.1% | viability, T/C [20]: 1.11% | viability, T/C [21]: 2.35% | viability, T/C [22]: 1.61% | viability, T/C [23]: 0.99% | viability, T/C [24]: 1.35% | viability, T/C [34]: 0.25% | viability, T/C [26]: 0.56% | viability, T/C [27]: 0.88% | viability, T/C [28]: 0.44% | viability, T/C [29]: 0.77% | viability, T/C [30]: 0.11% | viability, T/C [35]: 0.35%

CC(=O)OC12COC1CC(O)C1(C)C(=O)C(O)C3=C(C)C(OC(=O)C(O)C(NC(=O)OC(C)(C)C)c4ccccc4)CC(O)(C(OC(=O)c4ccccc4)C21)C3(C)C (stereo not given) + COc1cc2nc(C)nc(NC(C)c3cc(N)cc(C(F)(F)F)c3)c2cc1OC1CCOC1
IC50 (second compound 0.1 µM): < 10 nM | IC50 (second compound 0.316 µM): < 10 nM | IC50 (second compound 1 µM): < 10 nM | IC50 (second compound 3.16 µM): < 10 nM | IC50 (second compound 10 µM): < 10 nM | viability, T/C [1]: 37.4% | viability, T/C [2]: 41.1% | viability, T/C [3]: 41.4% | viability, T/C [4]: 44.9% | viability, T/C [5]: 41.9% | viability, T/C [6]: 42.6% | viability, T/C [7]: 38.2% | viability, T/C [8]: 39.5% | viability, T/C [9]: 36% | viability, T/C [10]: 34.5% | viability, T/C [11]: 36.9% | viability, T/C [12]: 35.5% | viability, T/C [13]: 35.8% | viability, T/C [14]: 47.8% | viability, T/C [15]: 49.6% | viability, T/C [16]: 47.3% | viability, T/C [17]: 48% | viability, T/C [18]: 36.1% | viability, T/C [19]: 33.5% | viability, T/C [20]: 31.4% | viability, T/C [21]: 32% | viability, T/C [22]: 31.7% | viability, T/C [23]: 32.7% | viability, T/C [24]: 33.3% | viability, T/C [25]: 31.2% | viability, T/C [26]: 29.1% | viability, T/C [27]: 30% | viability, T/C [28]: 32.7% | viability, T/C [29]: 36.2% | viability, T/C [30]: 32.2%
